Laboratory results taken from patent US4925835A, “Aziridinyl putrescine containing compositions and their uses in treating prostate cancer” (priority 1987, dated 1990).

How the values were obtained:
[1] = Alkylating activity with 4-(p-nitrobenzyl)pyridine; conditions: 100 nmol in 5.0 ml, 0.1M acetate, PH 4.5, 37° C., 2 h
Procedure: The preparation of 1-(4-aminobutyl) aziridine from 1,4-diaminobutane (putrescine) was performed by the three-step synthetic method reported by Piper et al. supra.
1-(4-aminobutyl) aziridine (100 nmol) produced an absorbance increase of 0.7 with 4-(p-nitrobenzyl)pyridine in 5.0 ml when incubated in 0.1M acetate, PH 4.5, at 37° C. for 2 h. […] The retention times were: putrescine, 19.6 min; 1-(4-aminobutyl) aziridine, 21.1 min; and histamine, 21.8 min.

PC-3 cells = experiment: Polyamine assays: intracellular polyamine levels by HPLC; format: cell-based, human
Procedure: One h later the medium was aspirated and the cells were rinsed with cold HBSS. Three plates were treated with dilute trypsin to release the cells from the plate and provide a single cell suspension. The viability of the cells and the number of cells per plate were determined by trypan blue exclusion and counting with the aid of a hemocytometer. […] The other three plates were extracted with 0.4N perchloric acid and the polyamines were measured by fluorescence following postcolumn derivatization with o-phthalaldehyde following separation by the reverse phase ion-pair high performance liquid chromatography procedure of Wagner et al., J. Chomatogr., 227: 349-368, 1982.
In Table 2 are listed the values for the triplicate assays of the concentrations of polyamine observed in nontreated cells, cells treated with 1-(4-aminobutyl) aziridine for 1 h, cells pretreated for 48 h with 1 mM difluoromethylornithine and then incubated in drug free medium for 1 h, or cells pretreated for 48 h with difluoromethylornithine, rinsed free of difluoromethylornithine, and then incubated with 25 μM 1-(4-aminobutyl)aziridine for 1 h. All groups had cell viabilities greater than 95% and cell numbers were 4.9±0.6 (SE), 4.9±0.7, 4.8±0.4, and 4.6±0.4×10^6 cells for the control, 1-(4-aminobutyl) aziridine, difluoromethylornithine, and difluoromethylornithine+1-(4-aminobutyl) aziridine groups, respectively. The apparent amount of 1-(4-aminobutyl) aziridine in the difluoromethylornithine-treated cells was 3.7 times that of the 1-(4-aminobutyl) aziridine-only-treated cells. No N^8 -acetylspermidine, acetylputrescine, or cadaverine was detected in any group. A peak was detected at a wavelength of 254 nm in the difluoromethylornithine treatment groups that corresponds to the retention time of decarboxylated S-adenosylmethionine.
^a PC-3 cells were incubated with or without 1 mM DFMO for 48 h. Cell
were then rinsed free of DFMO and incubated for 1 h with 25 μM AZP. Th
cells were washed free of AZP by three rinses of HBSS. With one set of
triplicate plates, the cells were resuspended and counted by hemocytomete
and viability was determined by trypan dye exclusion (viability > 95%).
Another set triplicate plates was extracted with icecold perchloric acid
and filtered and the polyamine concentrations were determined by HPLC.
^b Mean ± SE for a triplicate assay. Histamine is included as a […]

normal rat prostate = experiment: In vivo antiprostatic activity, prostate wet weight; conditions: Copenhagen rats
Procedure: 1-(4-aminobutyl) aziridine, difluoromethylornithine, and a combination of 1-(4-aminobutyl) aziridine and difluoromethylornithine were tested in vivo for antiprostatic activity using Copenhagen rats. The normal rat prostate is often used as a model or control for drugs which are suspected of having antiprostatic cancer activity. Sloan, et al., Cancer Chemother. Rep. 59: 185-194 (1975). 1-(4-aminobutyl) aziridine, difluoromethylornithine, and a combination of 1-(4-aminobutyl) aziridine and difluoromethylornithine were administered to twenty-eight (28) Copenhagen rats for 14 days. 1-(4-aminobutyl) aziridine was administered by an infusion mini-pump implanted intraperitoneally.
Difluoromethylornithine was administered orally. The 1-(4-aminobutyl) aziridine was delivered at a rate of 2 mg/kg/day. A similar amount of difluoromethylornithine was administered orally on a daily basis. Before loading the infusion pump, the pH of 1-(4-aminobutyl) aziridine was adjusted to 7.5 with hydrochloric acid. The pump rate was 0.5 u./hr.
The prostates of the twenty-eight (28) subjects were removed, freed of fat and weighed to the nearest milligram.

[2] = PC-3, ±1 mM DFMO 48 h, then ±25 μM AZP 1 h, mean ± SE
[3] = 14 days, AZP 2 mg/kg/day by intraperitoneal infusion mini-pump, DFMO similar amount orally

For NCCCCN1CC1 [AZP, 1-(4-aminobutyl) aziridine], the “Absorbance increase with 4-(p-nitrobenzyl)pyridine (alkylating activity)” value [1] was 0.7, the “Apparent amount of AZP in DFMO-treated cells relative to AZP-only-treated cells” value (PC-3 cells; 25 μM AZP 1 h, 1 mM DFMO 48 h pretreatment) was 3.7 times and the “Polyamine levels: AZP” value (PC-3 cells; PC-3, ±1 mM DFMO 48 h, then 25 μM AZP 1 h, mean ± SE) was 115 ± 32 pmol/10^6. For the same compound, the “Cell numbers at end of treatment” value (PC-3 cells; PC-3, ±1 mM DFMO 48 h, then ±25 μM AZP 1 h, SE) was 4.9±0.7 ×10^6 cells, the “Polyamine levels: Hist (histamine, nonpolyamine control)” value (PC-3 cells; [2]) was 86 ± 25 pmol/10^6 and the “Polyamine levels: NaSpm (N-acetylspermine)” value (PC-3 cells; [2]) was 125 ± 28 pmol/10^6. The “Polyamine levels: PUT (putrescine)” value (PC-3 cells; [2]) was 2520 ± 170 pmol/10^6, the “Polyamine levels: Spd (spermidine)” value (PC-3 cells; [2]) was 2884 ± 100 pmol/10^6 and the “Polyamine levels: Spm (spermine)” value (PC-3 cells; [2]) was 3604 ± 323 pmol/10^6. For the same compound, the “Reduction of the size of the normal ventral prostate” value (normal rat prostate; 2 mg/kg/day over a fourteen day period) was “approximately 67%”, the “Animal toxicity (weight or fur loss, poor posture)” value (normal rat prostate; 2 mg/kg/day, 14 days) was “no evidence of animal toxicity” and the “Organ toxicity on examination at sacrifice (liver, spleen, intestine, kidneys)” value (normal rat prostate; 2 mg/kg/day, 14 days) was “no other organs, e.g., liver, spleen, intestine, kidneys, demonstrated any evidence of toxicity”. The “Effect on prostate size (in words)” value (normal rat prostate; 14 days) was “significantly decreased the size of the normal ventral prostates”, the “Dorsal Lateral Prostate, milligram wet weight (SEM)” value (normal rat prostate; [3]) was 474 ± 39 milligram and the “Ventral Prostate, milligram wet weight (SEM)” value (normal rat prostate; [3]) was 378 ± 30 milligram.
